This is an account of results in US20190135747A1, “INDOLE AND INDAZOLE CYANOCINNAMATE COMPOUNDS AND THERAPEUTIC USES THEREOF” (Regents of the University of Minnesota, priority 2016, published 2019).

What all share (assay type): cell-based
The target of assay [1] is T1, MCT1 (Rattus norvegicus, UniProt P53987).
T1 construct: endogenous in cells; host or cells: RBE4 rat brain endothelial cells
T1 sequence (P53987 1-494): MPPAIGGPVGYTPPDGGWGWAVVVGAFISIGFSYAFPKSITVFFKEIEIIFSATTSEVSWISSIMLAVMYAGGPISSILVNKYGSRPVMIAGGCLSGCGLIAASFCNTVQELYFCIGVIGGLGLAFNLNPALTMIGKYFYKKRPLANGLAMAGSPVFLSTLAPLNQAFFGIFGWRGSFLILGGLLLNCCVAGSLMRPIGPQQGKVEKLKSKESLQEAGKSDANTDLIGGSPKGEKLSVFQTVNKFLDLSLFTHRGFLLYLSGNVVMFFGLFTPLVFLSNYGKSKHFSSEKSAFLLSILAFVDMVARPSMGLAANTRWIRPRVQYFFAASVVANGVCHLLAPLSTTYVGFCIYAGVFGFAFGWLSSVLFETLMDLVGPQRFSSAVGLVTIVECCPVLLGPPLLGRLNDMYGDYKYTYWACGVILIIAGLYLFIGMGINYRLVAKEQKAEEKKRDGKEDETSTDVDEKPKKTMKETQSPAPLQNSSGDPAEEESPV
T1 sequence (P26453 140-388 partner limits assumed): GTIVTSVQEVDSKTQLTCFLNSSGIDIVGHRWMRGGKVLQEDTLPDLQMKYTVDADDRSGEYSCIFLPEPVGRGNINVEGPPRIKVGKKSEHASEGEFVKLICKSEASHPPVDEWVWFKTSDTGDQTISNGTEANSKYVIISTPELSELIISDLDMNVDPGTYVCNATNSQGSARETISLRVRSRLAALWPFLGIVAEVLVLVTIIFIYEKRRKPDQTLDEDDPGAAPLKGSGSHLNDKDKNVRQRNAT
Nature of the assay: MCT lactate inhibition assay, MCT1 in RBE4. The following applies: RBE4 rat brain endothelial cells. On the procedure:
(§1) Cell line MDA-MB-231 (MCT4 expressing human triple negative breast cancer cell line), cell line MCF-7 (MCT1 expressing estrogen receptor positive human breast cancer cell line), and cell line 4T1 (MCT1 expressing metastatic murine breast cancer cell line) were used for testing the in vitro cytotoxicity of compounds 1-d, 2, and 3 using the MTT assay available from ThermoFisher Scientific. In addition, Compounds 1-d, 2, and 3 were also evaluated for MCT1 inhibition activity in RBE4 (MCT1 expressing rat brain endothelial 4 cell line) and MCT4 inhibition activity in MDA-MB-231 cell lines by measuring the IC50 values using the MCT lactate inhibition assays (Gurrapu S, Jonnalagadda S K, Alam M A, Nelson G L, Sneve M G, Drewes L R, Venkatram R. Mereddy. Monocarboxylate transporter 1 inhibitors as potential anti-cancer agents. ACS. Med. Chem. Lett., 2015, 6, 558-561.).

The subject of assay [2] is MCF-7 (MCT1 expressing estrogen receptor positive human breast cancer cell line). The experiment in a line: MTT in vitro cytotoxicity assay, MCF-7. Particulars: MCF7, MCF-7 cells. The method, then: as §1
For assay [3], the system named is 4T1 (MCT1 expressing metastatic murine breast cancer cell line). Nature of the assay: MTT in vitro cytotoxicity assay, 4T1. The following applies: Mus musculus, 4T1 cells. The method, then: as §1
In assay [4] the target is T2, MCT4 (Homo sapiens, UniProt O15427).
T2 construct: Cell line MDA-MB-231 (MCT4 expressing human triple negative breast cancer cell line); endogenous in cells; host or cells: MDA-MB-231 human triple negative breast cancer cells
T2 sequence (O15427 2-465 limits assumed): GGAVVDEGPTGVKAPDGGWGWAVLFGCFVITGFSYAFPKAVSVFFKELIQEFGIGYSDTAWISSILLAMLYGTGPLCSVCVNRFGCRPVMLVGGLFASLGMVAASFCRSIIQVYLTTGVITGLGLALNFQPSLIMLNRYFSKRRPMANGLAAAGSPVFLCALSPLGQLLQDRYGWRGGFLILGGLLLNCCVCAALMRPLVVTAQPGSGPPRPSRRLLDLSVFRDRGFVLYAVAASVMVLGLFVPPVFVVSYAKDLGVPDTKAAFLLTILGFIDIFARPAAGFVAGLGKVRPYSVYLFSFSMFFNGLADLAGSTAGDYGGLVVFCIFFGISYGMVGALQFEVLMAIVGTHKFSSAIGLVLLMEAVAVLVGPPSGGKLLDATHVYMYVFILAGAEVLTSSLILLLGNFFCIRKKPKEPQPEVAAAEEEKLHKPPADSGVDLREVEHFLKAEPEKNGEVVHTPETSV
T2 sequence (P35613 140-385 partner limits assumed): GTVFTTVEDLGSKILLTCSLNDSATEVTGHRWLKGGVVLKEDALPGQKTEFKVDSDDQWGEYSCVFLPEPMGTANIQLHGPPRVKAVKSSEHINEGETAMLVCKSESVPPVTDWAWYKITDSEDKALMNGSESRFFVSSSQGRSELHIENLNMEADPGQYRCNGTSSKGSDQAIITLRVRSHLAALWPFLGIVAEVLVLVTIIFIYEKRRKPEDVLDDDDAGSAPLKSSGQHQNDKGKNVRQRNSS
Nature of the assay: MCT lactate inhibition assay, MCT4 in MDA-MB-231. Particulars: MDA-MB-231 cells. The method, then: as §1

For assay [5], the system named is MDA-MB-231 (MCT4 expressing human triple negative breast cancer cell line). Nature of the assay: MTT in vitro cytotoxicity assay, MDA-MB-231. Particulars: MDA-MB-231 cells. On the procedure:
as §1

Some results are limits rather than exact numbers.

With `CN(C)c1ccc(-n2cc(/C=C(\C#N)C(=O)O)c3ccccc32)cc1` [Compound 1-d], the IC50 (as a rule, the concentration that gives 50% inhibition) in assay [1] is 0.07 ± 0.02 µM; in assay [2] it was > 250 µM; in assay [3] it was 65.4 ± 4.26 µM; in assay [4], 0.02 ± 0.01 µM; in assay [5], > 250 µM.

As for `N#C/C(=C\c1cn(-c2ccc(NC(=O)Nc3ccc(Cl)c(C(F)(F)F)c3)cc2)c2ccccc12)C(=O)O` [Compound 2], the IC50 in assay [1] turned out to be 0.47 ± 0.05 µM; in assay [2] it was 41.6 ± 20.8 µM; in assay [3], 76.5 ± 4.86 µM; in assay [4], 0.57 ± 0.05 µM; in assay [5], 88.1 ± 17.2 µM.

On to `N#C/C(=C\c1cn(-c2ccc(NC(=O)c3ccc(NC(=O)Nc4ccc(Cl)c(C(F)(F)F)c4)cc3)cc2)c2ccccc12)C(=O)O` [Compound 3], for which the IC50 is 0.11 µM in assay [1]; > 250 µM in assay [2]; > 250 µM in assay [3]; 0.14 ± 0.04 µM in assay [4]; > 250 µM in assay [5].
